{
  "source": "patent US11331299B2",
  "about": "“Medicinal use of serrulatane diterpenes” (The University of Sydney, priority 2016, dated 2022)",
  "key": {"[1]": {"molecular_target": "HDAC5 (h) (Homo sapiens, UniProt Q9UQL6)", "sequence (Q9UQL6 whole entry)": "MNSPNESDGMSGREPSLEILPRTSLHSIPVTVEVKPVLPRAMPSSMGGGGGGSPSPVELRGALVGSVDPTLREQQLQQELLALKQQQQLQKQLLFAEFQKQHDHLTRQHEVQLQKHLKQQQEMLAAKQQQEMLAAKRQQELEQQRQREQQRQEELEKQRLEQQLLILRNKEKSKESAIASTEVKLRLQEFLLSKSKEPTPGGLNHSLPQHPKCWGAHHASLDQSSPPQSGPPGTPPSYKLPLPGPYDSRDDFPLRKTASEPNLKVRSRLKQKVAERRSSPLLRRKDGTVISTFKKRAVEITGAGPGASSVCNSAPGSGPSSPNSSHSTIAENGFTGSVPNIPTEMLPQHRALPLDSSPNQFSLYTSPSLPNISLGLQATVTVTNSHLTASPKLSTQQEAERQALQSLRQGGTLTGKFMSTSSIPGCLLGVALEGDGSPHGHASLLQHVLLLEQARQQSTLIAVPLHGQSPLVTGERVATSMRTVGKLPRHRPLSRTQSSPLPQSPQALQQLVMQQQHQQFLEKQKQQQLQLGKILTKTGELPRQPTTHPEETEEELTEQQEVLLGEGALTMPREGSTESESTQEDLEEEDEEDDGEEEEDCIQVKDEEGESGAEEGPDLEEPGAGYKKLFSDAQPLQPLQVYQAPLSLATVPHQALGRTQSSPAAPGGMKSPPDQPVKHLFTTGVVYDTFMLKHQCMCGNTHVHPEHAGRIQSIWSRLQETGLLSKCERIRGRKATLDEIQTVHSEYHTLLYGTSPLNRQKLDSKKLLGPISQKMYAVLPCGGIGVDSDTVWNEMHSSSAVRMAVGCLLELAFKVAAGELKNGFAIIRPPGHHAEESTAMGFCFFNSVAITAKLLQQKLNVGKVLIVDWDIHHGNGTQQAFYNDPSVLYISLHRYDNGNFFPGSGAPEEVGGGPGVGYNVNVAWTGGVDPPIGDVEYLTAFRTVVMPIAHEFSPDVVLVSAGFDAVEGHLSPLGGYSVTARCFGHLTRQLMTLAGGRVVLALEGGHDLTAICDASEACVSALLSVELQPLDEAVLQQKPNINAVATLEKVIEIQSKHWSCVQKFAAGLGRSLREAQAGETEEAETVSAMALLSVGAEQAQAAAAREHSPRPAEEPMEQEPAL", "test": "Epigenetic enzyme assay, Histone deacetylase (HDACs)", "type": "biochemical", "conditions": "read-out: % Inhibition of Control Values"}, "[2]": {"molecular_target": "T1, BRD2(1) (h) bromodomain (Homo sapiens, UniProt P25440)", "T1 construct": "Bromodomain", "T1 sequence (P25440 74-180 limits assumed)": "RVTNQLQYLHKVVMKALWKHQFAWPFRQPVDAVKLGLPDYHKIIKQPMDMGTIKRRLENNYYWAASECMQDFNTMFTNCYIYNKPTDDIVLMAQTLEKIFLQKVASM", "test": "Epigenetic binding assay, Bromodomain", "conditions": "for % Inhibition of Control Specific Binding / inhibition at 10 µM: 10 μM; for inhibition at 10 µM: read-out: % Inhibition of Control Specific Binding"}, "[3]": {"molecular_target": "T2, Deacetylase, Histone 1 (Homo sapiens, UniProt Q13547)", "T2 construct": "host or cells: Insect Sf9 cells", "test": "Deacetylase, Histone 1 (PanLab)", "type": "biochemical", "description": "(§1) The in vitro pharmacological studies were conducted by Eurofins PanLab (Taiwan) using the parameters shown in Table 13 with respect to appropriate literature references."}, "[4]": {"molecular_target": "T3, FBXL11 (h) (Homo sapiens, UniProt Q9Y2K7)", "T3 sequence (Q9Y2K7 1-1162)": "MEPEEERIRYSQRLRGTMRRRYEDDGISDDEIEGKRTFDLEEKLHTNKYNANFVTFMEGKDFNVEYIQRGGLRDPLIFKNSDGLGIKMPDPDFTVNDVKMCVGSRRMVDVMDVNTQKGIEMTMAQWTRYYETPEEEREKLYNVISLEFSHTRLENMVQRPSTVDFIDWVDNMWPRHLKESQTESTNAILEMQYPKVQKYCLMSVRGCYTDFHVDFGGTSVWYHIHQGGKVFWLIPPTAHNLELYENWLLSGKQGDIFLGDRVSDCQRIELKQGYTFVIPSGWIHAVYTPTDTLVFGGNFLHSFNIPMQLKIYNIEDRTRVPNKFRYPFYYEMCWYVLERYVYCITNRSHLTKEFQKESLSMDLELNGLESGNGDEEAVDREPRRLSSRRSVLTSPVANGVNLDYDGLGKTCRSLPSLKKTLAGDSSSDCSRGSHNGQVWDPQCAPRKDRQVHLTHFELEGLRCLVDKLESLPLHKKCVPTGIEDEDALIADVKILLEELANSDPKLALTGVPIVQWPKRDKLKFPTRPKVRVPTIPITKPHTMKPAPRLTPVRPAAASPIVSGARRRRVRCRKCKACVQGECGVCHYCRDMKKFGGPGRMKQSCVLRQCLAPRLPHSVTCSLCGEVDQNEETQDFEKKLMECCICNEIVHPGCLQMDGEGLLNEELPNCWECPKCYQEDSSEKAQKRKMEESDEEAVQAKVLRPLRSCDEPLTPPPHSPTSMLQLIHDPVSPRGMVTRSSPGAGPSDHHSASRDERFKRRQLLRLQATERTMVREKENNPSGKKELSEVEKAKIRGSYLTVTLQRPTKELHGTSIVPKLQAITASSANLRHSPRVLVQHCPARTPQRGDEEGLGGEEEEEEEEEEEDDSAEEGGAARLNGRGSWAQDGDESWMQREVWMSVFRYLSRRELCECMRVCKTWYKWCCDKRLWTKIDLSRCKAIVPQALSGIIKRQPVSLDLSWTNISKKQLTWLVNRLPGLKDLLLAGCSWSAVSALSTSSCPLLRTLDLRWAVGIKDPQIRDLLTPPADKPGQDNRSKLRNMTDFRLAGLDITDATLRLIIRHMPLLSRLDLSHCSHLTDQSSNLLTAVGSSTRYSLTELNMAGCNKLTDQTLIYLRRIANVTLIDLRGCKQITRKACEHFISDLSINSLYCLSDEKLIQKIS", "test": "Epigenetic enzyme assay, Demethylases (KDMs)", "type": "biochemical", "conditions": "read-out: % Inhibition of Control Values"}, "[5]": {"molecular_target": "MYST3(h) (Homo sapiens, UniProt Q92794)", "sequence (Q92794 whole entry)": "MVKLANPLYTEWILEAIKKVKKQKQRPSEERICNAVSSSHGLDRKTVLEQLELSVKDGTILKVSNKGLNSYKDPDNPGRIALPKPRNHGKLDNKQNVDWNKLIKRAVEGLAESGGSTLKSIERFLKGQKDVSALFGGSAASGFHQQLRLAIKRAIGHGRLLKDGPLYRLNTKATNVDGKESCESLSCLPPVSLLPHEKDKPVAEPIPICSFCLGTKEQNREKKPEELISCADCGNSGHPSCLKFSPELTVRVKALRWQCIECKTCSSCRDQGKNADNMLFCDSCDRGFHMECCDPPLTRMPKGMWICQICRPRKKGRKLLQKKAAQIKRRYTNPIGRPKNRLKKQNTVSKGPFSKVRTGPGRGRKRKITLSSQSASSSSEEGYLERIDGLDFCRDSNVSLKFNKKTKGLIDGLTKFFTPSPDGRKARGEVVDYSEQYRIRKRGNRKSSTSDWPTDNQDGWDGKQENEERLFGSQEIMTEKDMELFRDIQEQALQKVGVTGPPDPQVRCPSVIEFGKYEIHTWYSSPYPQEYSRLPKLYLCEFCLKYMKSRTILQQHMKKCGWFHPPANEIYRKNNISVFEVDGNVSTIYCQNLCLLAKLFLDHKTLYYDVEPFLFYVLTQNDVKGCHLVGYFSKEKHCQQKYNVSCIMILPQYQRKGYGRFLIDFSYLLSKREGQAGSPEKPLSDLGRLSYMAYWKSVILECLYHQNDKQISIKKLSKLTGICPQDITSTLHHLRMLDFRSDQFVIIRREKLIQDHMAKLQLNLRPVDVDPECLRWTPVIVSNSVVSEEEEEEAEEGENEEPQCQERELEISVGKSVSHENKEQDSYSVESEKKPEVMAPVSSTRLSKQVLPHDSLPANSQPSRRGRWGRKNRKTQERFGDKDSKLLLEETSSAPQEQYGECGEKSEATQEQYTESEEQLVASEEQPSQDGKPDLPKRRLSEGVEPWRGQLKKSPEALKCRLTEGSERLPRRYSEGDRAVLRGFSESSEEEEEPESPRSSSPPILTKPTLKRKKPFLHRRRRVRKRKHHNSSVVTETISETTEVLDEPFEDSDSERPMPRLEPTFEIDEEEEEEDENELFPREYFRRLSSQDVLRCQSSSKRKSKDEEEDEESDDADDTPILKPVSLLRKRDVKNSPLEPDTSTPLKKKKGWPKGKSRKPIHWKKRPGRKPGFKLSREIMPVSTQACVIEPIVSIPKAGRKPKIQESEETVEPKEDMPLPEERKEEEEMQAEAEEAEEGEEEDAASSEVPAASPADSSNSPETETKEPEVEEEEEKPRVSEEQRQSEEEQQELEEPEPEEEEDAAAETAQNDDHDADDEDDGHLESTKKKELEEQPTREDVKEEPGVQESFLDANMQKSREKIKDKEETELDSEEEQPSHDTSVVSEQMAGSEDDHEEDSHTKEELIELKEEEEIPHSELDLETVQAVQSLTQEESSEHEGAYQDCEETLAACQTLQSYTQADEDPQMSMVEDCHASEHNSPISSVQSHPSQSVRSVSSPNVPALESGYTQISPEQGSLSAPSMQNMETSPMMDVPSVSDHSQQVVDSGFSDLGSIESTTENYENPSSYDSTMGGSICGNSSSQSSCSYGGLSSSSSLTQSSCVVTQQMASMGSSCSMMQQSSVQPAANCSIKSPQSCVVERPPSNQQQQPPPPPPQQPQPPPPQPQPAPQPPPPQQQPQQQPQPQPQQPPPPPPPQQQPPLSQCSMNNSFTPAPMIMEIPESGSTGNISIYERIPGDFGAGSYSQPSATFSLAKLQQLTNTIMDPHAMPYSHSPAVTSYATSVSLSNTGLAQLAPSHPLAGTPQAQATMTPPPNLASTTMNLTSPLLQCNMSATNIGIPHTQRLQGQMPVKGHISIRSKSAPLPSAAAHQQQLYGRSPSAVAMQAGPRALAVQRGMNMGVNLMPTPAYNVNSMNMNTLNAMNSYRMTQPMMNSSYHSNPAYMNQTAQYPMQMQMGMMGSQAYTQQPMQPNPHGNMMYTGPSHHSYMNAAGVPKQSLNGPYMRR", "test": "Epigenetic enzyme assay, Histone acetyltransferases (HATs)", "type": "biochemical", "conditions": "read-out: % Inhibition of Control Values"}, "[6]": {"molecular_target": "T4, PB1(3) (h) bromodomain (Homo sapiens, UniProt Q86U86)", "T4 construct": "Bromodomain", "T4 sequence (Q86U86 381-487 limits assumed)": "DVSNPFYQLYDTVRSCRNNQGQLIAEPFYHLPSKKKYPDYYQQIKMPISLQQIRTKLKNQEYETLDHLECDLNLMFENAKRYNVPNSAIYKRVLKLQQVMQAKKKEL", "test": "Epigenetic binding assay, Bromodomain", "conditions": "read-out: % Inhibition of Control Specific Binding"}, "[7]": {"molecular_target": "T5, TAF1(2)(h) bromodomain (Homo sapiens, UniProt P21675)", "T5 construct": "Bromodomain", "T5 sequence (P21675 1519-1628 limits assumed)": "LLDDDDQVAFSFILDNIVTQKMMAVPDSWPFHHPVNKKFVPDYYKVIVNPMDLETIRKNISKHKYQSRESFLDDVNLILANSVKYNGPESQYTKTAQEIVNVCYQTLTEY", "test": "Epigenetic binding assay, Bromodomain", "conditions": "10 μM; for inhibition at 10 µM: read-out: % Inhibition of Control Specific Binding"}, "[8]": {"molecular_target": "T6, BRD2(2) (h) bromodomain (Homo sapiens, UniProt P25440)", "T6 construct": "Bromodomain", "T6 sequence (P25440 344-453 limits assumed)": "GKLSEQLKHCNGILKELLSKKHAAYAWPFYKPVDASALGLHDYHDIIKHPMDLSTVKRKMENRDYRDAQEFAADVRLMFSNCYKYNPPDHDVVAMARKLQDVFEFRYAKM", "test": "Epigenetic binding assay, Bromodomain", "conditions": "read-out: % Inhibition of Control Specific Binding"}, "[9]": {"molecular_target": "T7, Xanthine Oxidase (Bos taurus, UniProt P80457)", "T7 construct": "Bovine buttermilk; from tissue; host or cells: bovine buttermilk", "T7 sequence (P80457 whole entry)": "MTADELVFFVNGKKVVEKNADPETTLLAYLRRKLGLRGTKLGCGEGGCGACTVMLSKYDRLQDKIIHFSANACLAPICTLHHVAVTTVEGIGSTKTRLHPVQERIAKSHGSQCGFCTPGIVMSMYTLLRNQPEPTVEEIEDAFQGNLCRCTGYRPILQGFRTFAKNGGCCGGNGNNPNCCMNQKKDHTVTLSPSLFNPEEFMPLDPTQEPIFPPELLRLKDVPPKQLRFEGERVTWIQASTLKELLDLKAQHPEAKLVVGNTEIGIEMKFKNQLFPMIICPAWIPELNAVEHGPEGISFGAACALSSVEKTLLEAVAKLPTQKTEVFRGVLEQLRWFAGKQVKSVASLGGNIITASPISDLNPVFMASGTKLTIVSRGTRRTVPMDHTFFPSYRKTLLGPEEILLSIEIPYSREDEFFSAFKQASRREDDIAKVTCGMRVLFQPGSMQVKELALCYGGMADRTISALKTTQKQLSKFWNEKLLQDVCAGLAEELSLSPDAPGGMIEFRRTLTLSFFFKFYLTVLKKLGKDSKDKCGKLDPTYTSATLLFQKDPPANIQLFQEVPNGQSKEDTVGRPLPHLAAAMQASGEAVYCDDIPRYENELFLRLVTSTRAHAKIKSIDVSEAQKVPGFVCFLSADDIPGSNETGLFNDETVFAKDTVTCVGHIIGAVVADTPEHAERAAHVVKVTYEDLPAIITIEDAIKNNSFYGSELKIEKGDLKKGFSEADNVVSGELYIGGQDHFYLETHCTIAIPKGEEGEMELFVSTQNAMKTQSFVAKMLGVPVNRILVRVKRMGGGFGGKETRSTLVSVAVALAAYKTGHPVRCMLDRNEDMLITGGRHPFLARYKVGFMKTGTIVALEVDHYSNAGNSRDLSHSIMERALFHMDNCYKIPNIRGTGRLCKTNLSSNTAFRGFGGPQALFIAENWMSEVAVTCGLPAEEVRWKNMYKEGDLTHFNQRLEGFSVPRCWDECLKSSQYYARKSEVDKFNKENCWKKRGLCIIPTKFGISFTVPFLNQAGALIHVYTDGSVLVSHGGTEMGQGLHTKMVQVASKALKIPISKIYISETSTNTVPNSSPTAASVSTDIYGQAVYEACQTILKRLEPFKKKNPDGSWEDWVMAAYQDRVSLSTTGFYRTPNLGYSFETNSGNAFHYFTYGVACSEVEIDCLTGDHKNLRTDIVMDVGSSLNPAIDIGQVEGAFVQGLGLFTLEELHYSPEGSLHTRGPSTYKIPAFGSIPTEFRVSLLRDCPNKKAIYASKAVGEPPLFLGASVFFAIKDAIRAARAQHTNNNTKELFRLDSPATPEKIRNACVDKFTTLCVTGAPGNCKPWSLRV", "test": "Xanthine Oxidase", "type": "biochemical, Bovine", "conditions": "assay year 2015, read-out: % Control Response", "description": "as §1"}, "[10]": {"molecular_target": "T8, Sirtuin 7 (h) (Homo sapiens, UniProt Q9NRC8)", "T8 sequence (Q9NRC8 1-400)": "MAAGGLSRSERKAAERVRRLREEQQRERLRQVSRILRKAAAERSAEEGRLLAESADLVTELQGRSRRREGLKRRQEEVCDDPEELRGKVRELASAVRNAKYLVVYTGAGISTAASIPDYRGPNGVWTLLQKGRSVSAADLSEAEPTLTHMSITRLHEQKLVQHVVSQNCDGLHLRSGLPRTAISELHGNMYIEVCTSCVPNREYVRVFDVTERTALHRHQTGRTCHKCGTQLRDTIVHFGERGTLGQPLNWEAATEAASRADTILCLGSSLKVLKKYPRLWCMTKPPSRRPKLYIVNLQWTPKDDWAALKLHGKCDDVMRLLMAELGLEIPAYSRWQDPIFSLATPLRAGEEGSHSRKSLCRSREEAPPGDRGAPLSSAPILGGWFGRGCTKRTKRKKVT", "test": "Epigenetic enzyme assay, Sirtuins", "type": "biochemical", "conditions": "10 μM; read-out: % Inhibition of Control Values"}, "[11]": {"molecular_target": "T9, BRDT(1) (h) bromodomain (Homo sapiens, UniProt Q58F21)", "T9 construct": "Bromodomain; Eurofins CEREP (France), contract laboratory", "test": "Epigenetic binding assay, Bromodomain", "conditions": "read-out: % Inhibition of Control Specific Binding"}, "[12]": {"molecular_target": "T10, Chemokine CCR2B (Homo sapiens, UniProt P41597)", "T10 construct": "expressed in transfected cells; host or cells: CHO-K1 cells", "T10 sequence (P41597 1-360 isoform P41597-2)": "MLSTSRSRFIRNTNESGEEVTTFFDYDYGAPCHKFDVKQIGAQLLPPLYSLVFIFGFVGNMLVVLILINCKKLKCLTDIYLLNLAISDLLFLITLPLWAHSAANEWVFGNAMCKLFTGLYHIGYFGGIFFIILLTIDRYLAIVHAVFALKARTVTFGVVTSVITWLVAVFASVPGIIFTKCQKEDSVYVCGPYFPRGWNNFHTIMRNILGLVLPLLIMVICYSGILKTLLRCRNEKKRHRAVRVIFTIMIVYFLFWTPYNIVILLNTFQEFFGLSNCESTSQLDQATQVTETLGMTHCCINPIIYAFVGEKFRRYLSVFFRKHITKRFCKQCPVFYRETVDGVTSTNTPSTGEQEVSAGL", "test": "Chemokine CCR2B radio ligand binding", "conditions": "assay year 2015, read-out: % Control Response", "description": "as §1"}},
  "data": [
    {"compound": "CC(C)=CCC[C@H](CO)[C@@H]1CC[C@@H](C)c2c1cc(C)c(O)c2O", "note": "[Compound 1, 7,8,18-trihydroxyserrulat-14-ene]", "values": [
      {"measurement": "inhibition at 10 µM", "setting": "[1]", "result": -3, "unit": "%"},
      {"measurement": "% Inhibition of Control Specific Binding", "setting": "[2]", "result": "significant inhibitory activity"},
      {"measurement": "inhibition at 10 µM", "setting": "[2]", "result": 60, "unit": "%"},
      {"measurement": "% control response at 10 µM", "setting": "[3]; assay year 2014", "result": 17, "unit": "%"},
      {"measurement": "% control response at 10 µM", "setting": "[3]; assay year 2015", "result": -27, "unit": "%"},
      {"measurement": "inhibition at 10 µM", "setting": "[4]", "result": 34, "unit": "%"},
      {"measurement": "inhibition at 10 µM", "setting": "[5]", "result": 18, "unit": "%"},
      {"measurement": "inhibition at 10 µM", "setting": "[6]", "result": 38, "unit": "%"},
      {"measurement": "% Inhibition of Control Specific Binding", "setting": "[7]", "result": "significant inhibitory activity"},
      {"measurement": "inhibition at 10 µM", "setting": "[7]", "result": 62, "unit": "%"},
      {"measurement": "inhibition at 10 µM", "setting": "[8]", "result": 58, "unit": "%"},
      {"measurement": "remaining activity at 10 µM", "setting": "[9]", "result": 14, "unit": "%"},
      {"measurement": "inhibition at 10 µM", "setting": "[10]", "result": 7, "unit": "%"},
      {"measurement": "inhibition at 10 µM", "setting": "[11]", "result": 43, "unit": "%"},
      {"measurement": "remaining activity at 10 µM", "setting": "[12]", "result": 1, "unit": "%"}
    ]},
    {"compound": "CC(C)=CCC[C@@H]1C(O)Oc2c(C)cc(O)c3c2[C@H]1CC[C@H]3C", "note": "(stereo partly drawn) [Compound 2, 5,18-epoxyserrulat-14-en-8,18-diol]", "values": [
      {"measurement": "inhibition at 10 µM", "setting": "[1]", "result": -2, "unit": "%"},
      {"measurement": "% Inhibition of Control Specific Binding", "setting": "[2]", "result": "significant activity"},
      {"measurement": "inhibition at 10 µM", "setting": "[2]", "result": 89, "unit": "%"},
      {"measurement": "IC50", "setting": "[2]; Table 9, inhibition/concentration-response curve", "result": 22, "unit": "µM"},
      {"measurement": "% control response at 10 µM", "setting": "[3]; assay year 2014", "result": 23, "unit": "%"},
      {"measurement": "% control response at 10 µM", "setting": "[3]; assay year 2015", "result": -18, "unit": "%"},
      {"measurement": "inhibition at 10 µM", "setting": "[4]", "result": 2, "unit": "%"},
      {"measurement": "inhibition at 10 µM", "setting": "[5]", "result": 11, "unit": "%"},
      {"measurement": "inhibition at 10 µM", "setting": "[6]", "result": 13, "unit": "%"},
      {"measurement": "inhibition at 10 µM", "setting": "[7]", "result": 28, "unit": "%"},
      {"measurement": "inhibition at 10 µM", "setting": "[8]", "result": 22, "unit": "%"},
      {"measurement": "remaining activity at 10 µM", "setting": "[9]", "result": 20, "unit": "%"},
      {"measurement": "inhibition at 10 µM", "setting": "[10]", "result": -2, "unit": "%"},
      {"measurement": "inhibition at 10 µM", "setting": "[11]", "result": 23, "unit": "%"},
      {"measurement": "remaining activity at 10 µM", "setting": "[12]", "result": -23, "unit": "%"}
    ]},
    {"compound": "CC(C)=CCC[C@@H]1COc2c(C)cc(O)c3c2[C@H]1CC[C@H]3C", "note": "[Compound 3, 5,18-epoxy-8-hydroxyserrulat-14-ene]", "values": [
      {"measurement": "inhibition at 10 µM", "setting": "[1]", "result": -1, "unit": "%"},
      {"measurement": "inhibition at 10 µM", "setting": "[2]", "result": 19, "unit": "%"},
      {"measurement": "% control response at 10 µM", "setting": "[3]; assay year 2015", "result": -26, "unit": "%"},
      {"measurement": "inhibition at 10 µM", "setting": "[4]", "result": 11, "unit": "%"},
      {"measurement": "inhibition at 10 µM", "setting": "[5]", "result": 3, "unit": "%"},
      {"measurement": "inhibition at 10 µM", "setting": "[6]", "result": 6, "unit": "%"},
      {"measurement": "inhibition at 10 µM", "setting": "[7]", "result": 22, "unit": "%"},
      {"measurement": "inhibition at 10 µM", "setting": "[8]", "result": 18, "unit": "%"},
      {"measurement": "remaining activity at 10 µM", "setting": "[9]", "result": 27, "unit": "%"},
      {"measurement": "inhibition at 10 µM", "setting": "[10]", "result": -8, "unit": "%"},
      {"measurement": "inhibition at 10 µM", "setting": "[11]", "result": 29, "unit": "%"},
      {"measurement": "remaining activity at 10 µM", "setting": "[12]", "result": -10, "unit": "%"}
    ]}
  ]
}
